From PubChem BioAssay AID330 (DTP/NCI, 2004)
Values joined by “and” are separate entries in the source; they are usually repeats but may differ in a detail not shown here. Equal values may be shown once. Inconclusive results and toxic doses are left out. How the source made its calls: active means survival T/C of 150% or more; inactive means T/C below 125% in these data.

Tested on: P388 leukemia ip, CD2F1 mice, survival T/C
Test: NCI In Vivo Anticancer Drug Screen. Data for tumor model P388 Leukemia (intraperitoneal) in CD2F1 (CDF1) mice
Conditions: endpoint: median survival time, higher = longer survival
In short: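 Mice carrying the transplanted tumor received test compound or vehicle. Survival was recorded in each group, and the value is the treated-group measurement divided by that of the vehicle-treated control group.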

[1] = dose: 60.0 mg/kg/injection, schedule: Q01DX005 (ip), vehicle: saline with Tween-80
[2] = dose: 120.0 mg/kg/injection, schedule: Q01DX005 (ip), vehicle: saline with Tween-80
[3] = dose: 240.0 mg/kg/injection, schedule: Q01DX005 (ip), vehicle: saline with Tween-80

Measured: T/C

COc1cc(OC)c(NC(=S)Nc2cc(C)ccc2OC)cc1Cl
inactive: dose: 6.25 mg/kg/injection, schedule: Q01DX009 (ip), vehicle: DMSO 94 % of control | dose: 12.5 mg/kg/injection, schedule: Q01DX009 (ip), vehicle: DMSO 91 % of control | dose: 25.0 mg/kg/injection, schedule: Q01DX009 (ip), vehicle: DMSO 91 % of control | dose: 50.0 mg/kg/injection, schedule: Q01DX009 (ip), vehicle: DMSO 91 % of control and 93 % of control | dose: 100.0 mg/kg/injection, schedule: Q01DX009 (ip), vehicle: DMSO 87 % of control

CN1c2ccccc2S(=O)(=O)n2c(-c3ccccc3Cl)nnc21
inactive: dose: 25.0 mg/kg/injection, schedule: Q01DX001 (ip), vehicle: saline with Tween-80 97 % of control | dose: 50.0 mg/kg/injection, schedule: Q01DX001 (ip), vehicle: saline with Tween-80 96 % of control | dose: 100.0 mg/kg/injection, schedule: Q01DX001 (ip), vehicle: saline with Tween-80 100 % of control and 95 % of control | dose: 400.0 mg/kg/injection, schedule: Q01DX001 (ip), vehicle: saline with Tween-80 90 % of control

CN(C)C1=CC=C2C(=O)c3ccccc3C2(c2ccccc2)C=C1 (stereo not given)
inactive: dose: 100.0 mg/kg/injection, schedule: Q04DX002 (ip), vehicle: saline with Tween-80 89 % of control | dose: 200.0 mg/kg/injection, schedule: Q04DX002 (ip), vehicle: saline with Tween-80 88 % of control | dose: 400.0 mg/kg/injection, schedule: Q04DX002 (ip), vehicle: saline with Tween-80 89 % of control

CC(=O)O[C@H]1[C@H]2O[C@]23[C@@H]2CC[C@]4(O)C[C@@H](O)CC[C@]4(C)[C@H]2CC[C@]3(C)[C@H]1c1ccc(=O)oc1
inactive: dose: 12.5 mg/kg/injection, schedule: Q01DX009 (ip), vehicle: Klucel (hydroxypropylcellulose) (HPC) 114 % of control | dose: 25.0 mg/kg/injection, schedule: Q01DX009 (ip), vehicle: Klucel (hydroxypropylcellulose) (HPC) 105 % of control | dose: 50.0 mg/kg/injection, schedule: Q01DX009 (ip), vehicle: Klucel (hydroxypropylcellulose) (HPC) 105 % of control | dose: 100.0 mg/kg/injection, schedule: Q01DX009 (ip), vehicle: Klucel (hydroxypropylcellulose) (HPC) 120 % of control

CC1=C(C/C=C(\C)CCCC(C)CCCC(C)CCCC(C)C)C(=O)c2ccccc2C1=O (stereo not given)
inactive: dose: 12.5 mg/kg/injection, schedule: Q01DX009 (ip), vehicle: olive oil, sesame oil, peanut oil 102 % of control | dose: 25.0 mg/kg/injection, schedule: Q01DX009 (ip), vehicle: olive oil, sesame oil, peanut oil 105 % of control | dose: 50.0 mg/kg/injection, schedule: Q01DX001 (ip), vehicle: olive oil, sesame oil, peanut oil 92 % of control | dose: 50.0 mg/kg/injection, schedule: Q01DX009 (ip), vehicle: olive oil, sesame oil, peanut oil 101 % of control | dose: 100.0 mg/kg/injection, schedule: Q01DX001 (ip), vehicle: olive oil, sesame oil, peanut oil 99 % of control | dose: 100.0 mg/kg/injection, schedule: Q01DX009 (ip), vehicle: olive oil, sesame oil, peanut oil 100 % of control | dose: 200.0 mg/kg/injection, schedule: Q01DX001 (ip), vehicle: olive oil, sesame oil, peanut oil 99 % of control | dose: 200.0 mg/kg/injection, schedule: Q01DX009 (ip), vehicle: olive oil, sesame oil, peanut oil 101 % of control

NC(=O)c1ncn(C2OC(CO)C(O)C2O)n1 (stereo not given)
inactive: dose: 10.0 mg/kg/injection, schedule: Q01DX009 (ip), vehicle: saline 99 % of control and 101 % of control | dose: 20.0 mg/kg/injection, schedule: Q01DX009 (ip), vehicle: saline 104 % of control | dose: 40.0 mg/kg/injection, schedule: Q01DX009 (ip), vehicle: saline 105 % of control and 106 % of control and 109 % of control | dose: 80.0 mg/kg/injection, schedule: Q01DX009 (ip), vehicle: saline 108 % of control and 112 % of control and 118 % of control | dose: 160.0 mg/kg/injection, schedule: Q01DX009 (ip), vehicle: saline 122 % of control | dose: 320.0 mg/kg/injection, schedule: Q01DX009 (ip), vehicle: saline 87 % of control

COc1cc(C=C2C(=O)C=CC2=O)cc(OC)c1O
inactive: dose: 1.25 mg/kg/injection, schedule: Q04DX002 (ip), vehicle: saline with Tween-80 102 % of control | dose: 2.5 mg/kg/injection, schedule: Q04DX002 (ip), vehicle: saline with Tween-80 103 % of control | dose: 5.0 mg/kg/injection, schedule: Q04DX002 (ip), vehicle: saline with Tween-80 102 % of control

Cc1ncc(CO)c2c1OC(C)(C)OC2
inactive: dose: 50.0 mg/kg/injection, schedule: Q01DX005 (ip), vehicle: saline with Tween-80 100 % of control | dose: 100.0 mg/kg/injection, schedule: Q01DX005 (ip), vehicle: saline with Tween-80 107 % of control | dose: 200.0 mg/kg/injection, schedule: Q01DX005 (ip), vehicle: saline with Tween-80 100 % of control

Nc1nc(N)c2cc([N+](=O)[O-])ccc2n1
inactive: [1] 93 % of control | [2] 94 % of control | [3] 96 % of control

CSC(=S)N/N=C(/C)c1ccco1
inactive: dose: 50.0 mg/kg/injection, schedule: Q01DX009 (ip), vehicle: saline with Tween-80 105 % of control | dose: 100.0 mg/kg/injection, schedule: Q01DX009 (ip), vehicle: saline with Tween-80 95 % of control

C[N+](C)(CCCCOc1c(Br)cc(Br)cc1Br)Cc1ccc([N+](=O)[O-])o1
inactive: dose: 12.5 mg/kg/injection, schedule: Q04DX003 (ip), vehicle: Klucel (hydroxypropylcellulose) (HPC) 100 % of control | dose: 25.0 mg/kg/injection, schedule: Q04DX003 (ip), vehicle: Klucel (hydroxypropylcellulose) (HPC) 101 % of control | dose: 50.0 mg/kg/injection, schedule: Q04DX003 (ip), vehicle: Klucel (hydroxypropylcellulose) (HPC) 100 % of control

COC(=O)Nc1nc2c(OC)c(OC)c(OC)cc2[nH]1
inactive: dose: 12.5 mg/kg/injection, schedule: Q01DX005 (ip), vehicle: other 97 % of control | dose: 25.0 mg/kg/injection, schedule: Q01DX005 (ip), vehicle: other 100 % of control | dose: 50.0 mg/kg/injection, schedule: Q01DX005 (ip), vehicle: other 100 % of control | dose: 100.0 mg/kg/injection, schedule: Q01DX005 (ip), vehicle: other 102 % of control

CC(O)C(=O)N(C)CCCO (stereo not given)
inactive: dose: 50.0 mg/kg/injection, schedule: Q01DX005 (ip), vehicle: saline 92 % of control | dose: 100.0 mg/kg/injection, schedule: Q01DX005 (ip), vehicle: saline 101 % of control | dose: 200.0 mg/kg/injection, schedule: Q01DX005 (ip), vehicle: saline 100 % of control

Cc1cc(O)cc2c1c(=O)c1ccccc1n2C
inactive: [1] 100 % of control | [2] 100 % of control | [3] 96 % of control

OC1(c2ccccc2)C(c2ccccc2)=C(c2ccccc2)C(c2ccc(CCc3ccc(C4=C(c5ccccc5)C(O)(c5ccccc5)C(c5ccccc5)=C4c4ccccc4)cc3)cc2)=C1c1ccccc1 (stereo not given)
inactive: dose: 6.25 mg/kg/injection, schedule: Q01DX001 (ip), vehicle: Klucel (hydroxypropylcellulose) (HPC) 105 % of control | dose: 12.5 mg/kg/injection, schedule: Q01DX001 (ip), vehicle: Klucel (hydroxypropylcellulose) (HPC) 111 % of control | dose: 25.0 mg/kg/injection, schedule: Q01DX001 (ip), vehicle: Klucel (hydroxypropylcellulose) (HPC) 90 % of control | dose: 50.0 mg/kg/injection, schedule: Q01DX001 (ip), vehicle: Klucel (hydroxypropylcellulose) (HPC) 94 % of control

CN1C(=O)CN=C(c2ccccn2)c2cc(Cl)ccc21
inactive: dose: 75.0 mg/kg/injection, schedule: Q01DX001 (ip), vehicle: saline with Tween-80 104 % of control | dose: 150.0 mg/kg/injection, schedule: Q01DX001 (ip), vehicle: saline with Tween-80 104 % of control | dose: 300.0 mg/kg/injection, schedule: Q01DX001 (ip), vehicle: saline with Tween-80 104 % of control

CCC[CH2][Ge](=[O])[CH2]CCC
inactive: dose: 50.0 mg/kg/injection, schedule: Q01DX009 (ip), vehicle: saline 103 % of control | dose: 100.0 mg/kg/injection, schedule: Q01DX009 (ip), vehicle: saline 102 % of control | dose: 200.0 mg/kg/injection, schedule: Q01DX009 (ip), vehicle: saline 88 % of control

CCOC1=Nc2ccccc2C1(C)CCO (stereo not given)
inactive: [1] 96 % of control | [2] 101 % of control | [3] 96 % of control

Nc1nnc2nc(CC(=O)c3ccc4ccccc4c3)c(=O)[nH]n12
inactive: dose: 60.0 mg/kg/injection, schedule: Q01DX005 (ip), vehicle: saline 95 % of control | dose: 120.0 mg/kg/injection, schedule: Q01DX005 (ip), vehicle: saline 100 % of control | dose: 240.0 mg/kg/injection, schedule: Q01DX005 (ip), vehicle: saline 103 % of control
